Test results as given in patent US20090253634A1, “Methods and Compositions for the Treatment of Gastrointestinal Disorders” (MICROBIA, INC., priority 2005, published 2009).
Bridge positions count the residues as written; N and C are the ends. Peptide text beside a SMILES is read from it.

How the values were obtained:
[1] = target: T1, intestinal GC-C receptor (Homo sapiens, UniProt P25092); assay: GC-C receptor activity assay (cyclic GMP) in T84 cells; format: cell-based; settings: chemically synthesized peptides, cyclic GMP by EIA
T1 construct: monolayers of T84 cells in 24-well plates; host or cells: T84 human colon carcinoma cells
T1 sequence (P25092 24-1073): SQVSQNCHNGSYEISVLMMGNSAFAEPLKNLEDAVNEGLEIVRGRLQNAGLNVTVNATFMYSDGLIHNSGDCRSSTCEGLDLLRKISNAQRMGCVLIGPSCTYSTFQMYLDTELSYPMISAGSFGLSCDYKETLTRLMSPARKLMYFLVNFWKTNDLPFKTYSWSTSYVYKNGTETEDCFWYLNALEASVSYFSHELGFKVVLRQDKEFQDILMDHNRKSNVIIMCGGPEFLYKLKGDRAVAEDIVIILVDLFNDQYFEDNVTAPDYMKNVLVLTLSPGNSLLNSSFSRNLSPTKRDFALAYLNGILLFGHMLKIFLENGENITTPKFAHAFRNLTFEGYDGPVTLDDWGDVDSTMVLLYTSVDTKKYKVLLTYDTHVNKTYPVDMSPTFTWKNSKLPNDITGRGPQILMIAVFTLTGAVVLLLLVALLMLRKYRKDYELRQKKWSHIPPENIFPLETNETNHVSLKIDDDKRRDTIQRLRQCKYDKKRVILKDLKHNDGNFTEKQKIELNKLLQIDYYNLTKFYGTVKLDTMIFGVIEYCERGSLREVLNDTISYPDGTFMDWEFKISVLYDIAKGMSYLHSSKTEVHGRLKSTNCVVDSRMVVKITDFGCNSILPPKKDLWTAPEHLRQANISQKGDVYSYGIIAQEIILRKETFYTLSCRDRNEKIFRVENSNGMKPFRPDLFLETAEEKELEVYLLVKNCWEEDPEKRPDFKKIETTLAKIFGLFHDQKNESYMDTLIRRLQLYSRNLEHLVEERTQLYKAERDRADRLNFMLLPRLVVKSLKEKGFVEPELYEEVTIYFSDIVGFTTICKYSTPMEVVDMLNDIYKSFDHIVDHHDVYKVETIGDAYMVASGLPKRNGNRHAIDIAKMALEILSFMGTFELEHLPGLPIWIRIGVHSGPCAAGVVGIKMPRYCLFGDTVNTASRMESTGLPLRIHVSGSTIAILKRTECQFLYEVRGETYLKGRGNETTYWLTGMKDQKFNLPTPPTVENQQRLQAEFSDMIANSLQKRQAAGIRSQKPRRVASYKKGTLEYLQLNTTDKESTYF
Method: The ability of SEQ ID NO:5, SEQ ID NO:4, SEQ ID NO:3, and SEQ ID NO:6 to activate the intestinal GC-C receptor was assessed in an assay employing the T84 human colon carcinoma cell line (American Type Culture Collection (Bethesda, Md.)). For the assays cells were grown to confluency in 24-well culture plates with a 1:1 mixture of Ham's F12 medium and Dulbecco's modified Eagle's medium (DMEM), supplemented with 5% fetal calf serum and were used at between passages 54 and 60.
Briefly, monolayers of T84 cells in 24-well plates were washed twice with 1 ml/well DMEM, then incubated at 37° C. for 10 min with 0.45 ml DMEM containing 1 mM isobutylmethylxanthine (IBMX), a cyclic nucleotide phosphodiesterase inhibitor, Test peptides (50 μl) were then added and incubated for 30 minutes at 37° C. The media was aspirated and the reaction was then terminated by the addition of ice cold 0.5 ml of 0.1N HCl. The samples were held on ice for 20 minutes and then evaporated to dryness using a heat gun or vacuum centrifugation.

[2] = target: T2, pepsin (Sus scrofa, UniProt P00791); assay: in vitro proteolytic stability: pepsin; format: in vitro ADME, porcine; settings: pH 2.0, 37° C., up to 3 h
T2 construct: purchased Sigma-Aldrich P68871; host or cells: porcine gastric mucosa
T2 sequence (P00791 60-385): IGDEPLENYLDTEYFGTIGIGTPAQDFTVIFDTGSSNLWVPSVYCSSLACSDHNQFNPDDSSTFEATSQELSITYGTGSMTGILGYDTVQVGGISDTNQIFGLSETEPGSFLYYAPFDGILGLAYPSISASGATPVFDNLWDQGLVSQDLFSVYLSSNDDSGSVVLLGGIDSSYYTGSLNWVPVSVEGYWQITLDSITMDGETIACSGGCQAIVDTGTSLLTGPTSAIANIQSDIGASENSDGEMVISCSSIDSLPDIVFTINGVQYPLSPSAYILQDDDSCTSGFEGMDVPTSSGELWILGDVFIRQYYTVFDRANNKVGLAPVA
Method: (§1) All samples were analyzed by LC/MS

[3] = target: T3, aminopeptidase (Sus scrofa, UniProt P15145); assay: in vitro proteolytic stability: aminopeptidase; format: in vitro ADME; settings: 37° C., up to 24 h
T3 construct: purchased Roche 102768
T3 sequence (P15145 1-963): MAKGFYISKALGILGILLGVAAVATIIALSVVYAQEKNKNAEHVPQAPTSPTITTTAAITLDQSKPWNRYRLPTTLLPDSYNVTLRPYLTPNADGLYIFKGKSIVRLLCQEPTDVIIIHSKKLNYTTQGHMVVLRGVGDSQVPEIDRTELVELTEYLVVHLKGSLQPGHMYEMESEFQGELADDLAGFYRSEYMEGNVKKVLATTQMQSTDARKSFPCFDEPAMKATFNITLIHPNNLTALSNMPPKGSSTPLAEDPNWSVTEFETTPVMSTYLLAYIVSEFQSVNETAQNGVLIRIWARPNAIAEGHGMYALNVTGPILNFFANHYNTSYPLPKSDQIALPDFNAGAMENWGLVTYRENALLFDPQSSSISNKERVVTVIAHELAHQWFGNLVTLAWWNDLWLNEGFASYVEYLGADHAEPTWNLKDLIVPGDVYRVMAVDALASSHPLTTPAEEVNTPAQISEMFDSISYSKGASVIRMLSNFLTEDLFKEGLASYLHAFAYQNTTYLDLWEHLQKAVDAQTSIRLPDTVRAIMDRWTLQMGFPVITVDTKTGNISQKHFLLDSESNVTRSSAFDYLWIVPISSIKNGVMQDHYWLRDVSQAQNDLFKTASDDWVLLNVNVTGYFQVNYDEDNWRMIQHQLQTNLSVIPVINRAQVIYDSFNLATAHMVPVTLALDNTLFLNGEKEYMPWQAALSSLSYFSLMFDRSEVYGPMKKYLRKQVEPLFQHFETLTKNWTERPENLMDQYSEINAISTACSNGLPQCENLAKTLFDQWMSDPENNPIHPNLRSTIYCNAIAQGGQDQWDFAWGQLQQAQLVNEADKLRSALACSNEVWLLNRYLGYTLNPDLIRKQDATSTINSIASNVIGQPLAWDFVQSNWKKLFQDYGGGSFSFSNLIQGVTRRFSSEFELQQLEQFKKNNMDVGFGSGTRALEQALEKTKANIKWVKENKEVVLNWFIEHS
Method: as §1

[4] = system: bowel habits; assay: single oral dose study of bowel habits in humans; format: in vivo
Method: Single doses of 30, 100, 300, 1000 or 3000 μg of chemically synthesized SEQ ID NO:3 were given to 30 healthy males and postmenopausal females. At each dose level (100 μg was done twice) SEQ ID NO:3 or placebo (vehicle) was administered orally in 5.0 mL 50 mM phosphate buffer (pH 6.0) plus 3×20 mL water rinses and 175 mL water after at least a 10-hour fast. In each dosing group, subjects were randomized to receive either placebo (1 subject) or SEQ ID NO:3 (3-4 subjects). Bowel habits (including Bristol Stool Form Scale score (BSFS; FIG. 14a), stool frequency, and stool weight) were evaluated for each collected bowel movement 48 hours prior to dose and up to approximately 48 hours postdose.

[5] = system: ligated loop in the small intestine; assay: ligated intestinal loop model in wild-type and GC-C KO mice; format: in vivo; settings: 5 μg injected into loop, 90 minutes
Method: The length of each loop was also recorded.

[6] = system: PBQ-induced writhing; assay: phenylbenzoquinone (PBQ)-induced writhing model

C[C@@H]1NC(=O)[C@@H]2CCCN2C(=O)[C@H](CC(N)=O)NC(=O)[C@@H]2CSSC[C@H](N)C(=O)N[C@H]3CSSC[C@H](NC1=O)C(=O)N[C@@H]([C@@H](C)O)C(=O)NCC(=O)N[C@H](C(=O)N[C@@H](Cc1ccc(O)cc1)C(=O)O)CSSC[C@H](NC(=O)[C@H](Cc1ccc(O)cc1)NC(=O)[C@H](CCC(=O)O)NC3=O)C(=O)N2 [SEQ ID NO:3] (H-CCEYCCNPACTGCY-OH; disulfide 1-6, 2-10, 5-13; N-terminus and C-terminus assumed)
activity in GC-C receptor activity assay [1]: activity comparable to SEQ ID NO:4 | Cleavage of SEQ ID NO: 3 by proteolytic substance [2]: not detectable | Cleavage of SEQ ID NO: 3 by proteolytic substance [3]: not detectable | percent of subjects with a 2-point or greater increase in BSFS score ([4]; 1000 μg dose group, mean pre-dose compared to peak 48 hours post-dose): highest percent of subjects | BSFS post-dose scores, relation to dose ([4]; single oral dose 30-3000 μg): Higher BSFS post-dose scores correlated with a higher dose | maximum BSFS (Bristol Stool Form Scale) score ([4]; single oral dose 30-3000 μg, healthy males and postmenopausal females): increase in maximum BSFS score | cGMP activity in ligated loop fluid [5]: no effect | secretion in ligated loop (weight to length ratio) [5]: no effect | writhings versus vehicle control ([6]; 2.5 mg/kg dose, oral): Significant reductions in writhings | antinociceptive effect compared with indomethacin ([6]; PBQ writhing assay): antinociceptive effects in this visceral pain model comparable to the intermediate doses of indomethacin
